Data reported in patent publication US20250129021A1, “SMALL MOLECULE PROTEIN SYNTHESIS MODULATORS” (Interdict Bio, Inc., priority 2023, published 2025).
Read-outs that look alike come from different tables or passages of the source.

Legend:
Format in all cases: biochemical
Conditions in all cases: HeLa S3 lysate, 2 hrs at 30° C.
CCND1 = assay: In vitro transcription-translation (IVTT) assay, CCND1 reporter
From the text: (§1) All reporter constructs have been cloned into the pT7CFE1-CHis plasmid (ThermoFisher #88860) using Gibson assembly procedures (NEB #E2611L). The parental pT7CFE1-CHis plasmid contains an EMCV IRES at the 5′UTR for translation initiation, a multiple-cloning site (MCS) for gene insertion, an optional C-terminal His-epitope tag, and polyA sequence in the 3′UTR to regulate mRNA stability. All reporters are designed to be inserted at the MCS to include a red fluorescent protein (mCherry), P2A self-cleaving peptide which releases the preceding mCherry protein product, and a fusion open reading frame containing a 3×FLAG epitope, a peptide sequence of interest (TEST), and green fluorescent protein (sfGFP).
(§2) Construct Plasmid Preparation: All plasmids are isolated from MACH1 cells (ThermoFisher) grown overnight in ampicillin-containing luria broth, and purified using ZymoPure Express Plasmid Midiprep Kit (Zymo Research). Constructs are sequenced verified and diluted to a working concentration of 110 ng/μL.
(§3) HeLa S3 Lysate Preparation: HeLa S3 cell pellets are acquired from Ipracell/Ipratech (Belgium) and shipped as 4 mL frozen cell pellets on dry ice for storage at −80° C. until use. The procedure for lysate preparation is as follows. Prepare 1× Lysis Buffer, cold and stored on ice:
(§4) Each preparation takes 8 cell pellets (4 ml packed volume each, approximately 1.0×10^9 cells per pellet). Thaw cell pellets from −80° C. on ice for 90 mins. Lay pellets horizontally on top of the ice and rotate every 30 mins to ensure even thawing. Once thawed, add 4 mL of cold lysis buffer to each pellet, and using a serological pipet, gently pipet up and down to break up clumps. Incubate resuspended cells in ice for an additional 30 mins (plunged into ice). During 30 min incubation, rinse and RNase-zap (Ambion) glass dounces (use loose pestle “A”), gently dry and place on ice until needed. Prepare RNase-free Eppendorf tubes for spinning and for batch storage. Add batch labels to 1.5-1.7 mL RNase-free microcentrifuge tubes (labeling scheme below). Each batch will have an extra 1.5-1.7 mL RNase-free microcentrifuge tube for 40 μL of lysate, label the top of this tube (labeling scheme below). After 30 min incubation, transfer all 8 mL of cell pellet to dounce. Cell lysis is complete after douncing 100 times. Aliquot cell lysis into 1.5-1.7 mL temporary-microcentrifuge tubes. Place tubes in centrifuge with “fins” out, and spin at 1,200×g for 5 mins. After the first spin use a 1 mL pipet to resuspend each tube and repeat spin. This acts as an additional lysis step, is more vigorous and increases lysate yield. During second spin get liquid N2 and a fresh conical tube on ice. After spin is complete, transfer supernatant (lysate) from microcentrifuge tubes into the 50 mL conical tube and keep on ice. Repeat steps 10-14 for all other cell pellets until completed. Once all cell lysate has been transferred to the 50 mL conical tube pipet to mix so the solution is homogenous. Transfer 1 mL of lysate into batch-labeled microcentrifuge tubes and flash freeze in liquid nitrogen. Be sure to pipet up and down to mix throughout transfer step. Place all tubes in the […] for long-term storage.
(§5) In vitro transcription-translation assay setup: Each assay includes a master mix containing lysate and shared components, a 96-well plate containing compound titrations for testing, a 96-well DNA plate with reporter constructs to be tested, 96-well skirted PCR plates, and 96-well flat-bottom, black, fluorescent assay plates. […]

MYC = assay: In vitro transcription-translation (IVTT) assay, MYC reporter
From the text: as §1, §2, §3, §4, §5

MCL-1 = assay: In vitro transcription-translation (IVTT) assay, MCL-1 reporter
From the text: as §1, §2, §3, §4, §5

CCNTB1 = assay: In vitro transcription-translation (IVTT) assay, CCNTB1 reporter
Experimental: as §4
In vitro transcription-translation assay setup: Each assay includes a master mix containing lysate and shared components, a 96-well plate containing compound titrations for testing, a 96-well DNA plate with reporter constructs to be tested, 96-well skirted PCR plates, and 96-well flat-bottom, black, fluorescent assay plates. Reaction materials setup: (A) Master mix—15 mL conical tube (3 mL of HeLa S3 Lysate described above; 0.6 mL of ThermoFisher Accessory Proteins (#88882); 1.2 ml of ThermoFisher Reaction Mix (#88882); 0.54 mL of nuclease-free Water); (B) 96-Well Master Mix+Compound Plate (Half-log dilutions (30 μM−0.1 μM) of 4 compounds of interest are prepared in 100% DMSO); 96-Well DNA Plate (Five DNA constructs are plated into single columns within the plate. Row 1 of the column contains nuclease free H2O, all other wells contain 110 ng/μL plasmid DNA). Reactions are started by mixing 155 μL of master mix and 3.5 μL of compound serial dilutions, then 9.1 μL of master mix+compound mixture is aliquoted across 5 96-well plates. Reactions begin with final addition of 2 μL of DNA for a 11.1 μL reaction volume in each well. The entire plate is sealed, and incubated for 2 hrs at 30° C. After 2 hrs, quench the assay using 45 μL of PBS, and transfer 50 μL to a flat-bottom black microplate Quantify the sfGFP and mCherry signals from each well on each plate, taking 3 reads of each plate, and perform data analysis below.
In vitro transcription-translation assay data analysis: Each plate is read three times in channels for both sfGFP and mCherry signals. The average signal across these 3 reads is then calculated for further analysis. Control wells containing no DNA reporter are subtracted from reporter wells in the same column to remove auto-fluorescence of the lysate. Then, the ratio of sfGFP/mCherry is calculated per well, and these ratios are averaged across the triplicate experiments on the same plate. Finally, the ratio of each titration concentration is normalized to the no drug control to create the normalized stalling metric. […]

[1] = IVTT assay, MYC reporter, normalized sfGFP/mCherry ratio, half-log dilutions 30 μM-0.1 μM

`COc1ccc(C[C@H]2NC[C@H](O)[C@H]2OC(=O)NCc2ccc(N)nn2)cc1` [V188311, (2R,3S,4S)-4-hydroxy-2-[(4-methoxyphenyl)methyl]pyrrolidin-3-yl N-[(6-aminopyridazine-3-yl)methyl]carbamate] was tested. Which IC50 (CCND1; IVTT) did it give?
The IC50 was less than 10 µM.

And the IC50 (MYC; [1])?
The IC50 was less than 10 µM.

And the IC50 (MCL-1; IVTT, read-out: MCL1 IC50)?
Its IC50 is less than 10 µM.

What about the IC50 (CCNTB1) of the same compound?
Its IC50 is less than 10 µM.

Which IC50 (CCND1; IVTT) does the source give for `COc1ccc(C[C@H]2NC[C@H](O)[C@H]2OC(=O)NCc2ccc(C3CNC3)cc2)cc1` [V190559, (2R,3S,4S)-4-hydroxy-2-[(4-methoxyphenyl)methyl]pyrrolidin-3-yl N-{[4-(azetidin-3-yl)phenyl]methyl}carbamate] here?
Its IC50 is less than 10 µM.

What about the IC50 (MYC; [1]) of the same compound?
The IC50 was less than 10 µM.

And the IC50 (MCL-1; IVTT, read-out: MCL1 IC50)?
Its IC50 is less than 10 µM.

And the IC50 (CCNTB1)?
Its IC50 is less than 10 µM.

How did the IC50 (CCND1; IVTT) turn out when `COc1ccc(C[C@H]2NC[C@H](O)[C@H]2OC(=O)NCC2CCC2)cc1` [V188318, (2R,3S,4S)-4-hydroxy-2-[(4-methoxyphenyl)methyl]pyrrolidin-3-yl N-(cyclobutylmethyl)carbamate] was run?
The IC50 was less than 10 µM.

What about the IC50 (MYC; [1]) of the same compound?
The IC50 was less than 10 µM.

What about the IC50 (MCL-1; IVTT, read-out: MCL1 IC50) of the same compound?
Its IC50 is less than 10 µM.

And the IC50 (CCNTB1)?
Its IC50 is less than 10 µM.

How did the IC50 (CCND1; IVTT) turn out when `COc1ccc(C[C@H]2NC[C@H](O)[C@H]2OC(=O)NCC[C@@H]2CCCCN2)cc1` [V191902, (2R,3S,4S)-4-hydroxy-2-[(4-methoxyphenyl)methyl]pyrrolidin-3-yl N-{2-[(2S)-piperidin-2-yl]ethyl}carbamate] was run?
The IC50 was greater than 30 µM.

What about the IC50 (MYC; [1]) of the same compound?
The IC50 was 10 to 20 µM.

And the IC50 (MCL-1; IVTT, read-out: MCL1 IC50)?
Its IC50 is greater than 30 µM.

And the IC50 (CCNTB1)?
The IC50 was 10 to 20 µM.

What does the source list for `COc1ccc(C[C@H]2NC[C@H](O)[C@H]2OC(=O)NCc2ccc(F)c(C#N)c2)cc1` [V188310, (2R,3S,4S)-4-hydroxy-2-[(4-methoxyphenyl)methyl]pyrrolidin-3-yl N-[(3-cyano-4-fluorophenyl)methyl]carbamate]?
IC50 (CCND1; IVTT): < 10 µM; IC50 (MYC; [1]): < 10 µM; IC50 (MCL-1; IVTT, read-out: MCL1 IC50): < 10 µM; IC50 (CCNTB1): < 10 µM

For `COc1ccc(C[C@H]2NC[C@H](O)[C@H]2OC(=O)NCc2ccccc2Cl)cc1` [V191915, (2R,3S,4S)-4-hydroxy-2-[(4-methoxyphenyl)methyl]pyrrolidin-3-yl N-[(2-chlorophenyl)methyl]carbamate], which IC50 (CCND1; IVTT) is on record?
The IC50 was less than 10 µM.

What about the IC50 (MYC; [1]) of the same compound?
Its IC50 is less than 10 µM.

And the IC50 (MCL-1; IVTT, read-out: MCL1 IC50)?
Its IC50 is less than 10 µM.

What about the IC50 (CCNTB1) of the same compound?
Its IC50 is less than 10 µM.

With `O=C(NCC[C@@H]1CCCN1)O[C@@H]1[C@@H](O)CN[C@@H]1Cc1ccc(-c2ccc(S(F)(F)(F)(F)F)cc2)cc1` [V191968, (2R,3S,4S)-4-hydroxy-2-((4′-(pentafluoro-l6-sulfanyl)-[1,1′-biphenyl]-4-yl)methyl)pyrrolidin-3-yl (2-((S)-pyrrolidin-2-yl)ethyl)carbamate] as the compound, how does the IC50 (MYC; [1]) read?
The IC50 was greater than 30 µM.

And the IC50 (CCNTB1)?
The IC50 was greater than 30 µM.

Which results are given for `[H]/N=C(\N)CNC(=O)O[C@@H]1[C@@H](O)CN[C@@H]1Cc1ccc(OC)cc1` [Cmpd V187993]?
IC50 (CCND1; sfGFP/mCherry ratio): 10 to 20 µM; IC50 (MYC; sfGFP/mCherry ratio): 10 to 20 µM; IC50 (MCL-1; sfGFP/mCherry ratio): 10 to 20 µM

With `COc1ccc(C[C@H]2NC[C@H](O)[C@H]2OC(=O)NCCN[C@@H]2CCNC2)cc1` [V188073, (2R,3S,4S)-4-hydroxy-2-[(4-methoxyphenyl)methyl]pyrrolidin-3-yl N-{2-[(3R)-pyrrolidin-3-ylamino]ethyl}carbamate] as the compound, how does the IC50 (CCND1; sfGFP/mCherry ratio) read?
Its IC50 is 20 to 30 µM.

And the IC50 (MYC; sfGFP/mCherry ratio)?
The IC50 was 10 to 20 µM.

What about the IC50 (MCL-1; sfGFP/mCherry ratio) of the same compound?
The IC50 was 10 to 20 µM.

`COc1ccc(C[C@H]2NC[C@H](O)[C@H]2OC(=O)NC[C@H]2CNC[C@H]2O)cc1` [V188115, (2R,3S,4S)-4-hydroxy-2-[(4-methoxyphenyl)methyl]pyrrolidin-3-yl N-{[(3R,4S)-4-hydroxypyrrolidin-3-yl]methyl}carbamate] was tested. Which IC50 (CCND1; sfGFP/mCherry ratio) did it give?
The IC50 was greater than 30 µM.

And the IC50 (MYC; sfGFP/mCherry ratio)?
Its IC50 is greater than 30 µM.

What about the IC50 (MCL-1; sfGFP/mCherry ratio) of the same compound?
Its IC50 is 10 to 20 µM.

`COc1ccc(C[C@H]2NC[C@H](O)[C@H]2OC(=O)NCCNc2ncccn2)cc1` [V188058] was tested. Which IC50 (CCND1; sfGFP/mCherry ratio) did it give?
The IC50 was greater than 30 µM.

What about the IC50 (MYC; sfGFP/mCherry ratio) of the same compound?
The IC50 was greater than 30 µM.

What about the IC50 (MCL-1; sfGFP/mCherry ratio) of the same compound?
The IC50 was greater than 30 µM.

Which results are given for `COc1ccc(C[C@H]2NC[C@H](O)[C@H]2OC(=O)NCc2cc(C(F)(F)F)[nH]n2)cc1` [Cmpd V187861]?
IC50 (CCND1; sfGFP/mCherry ratio): 20 to 30 µM; IC50 (MYC; sfGFP/mCherry ratio): > 30 µM; IC50 (MCL-1; sfGFP/mCherry ratio): < 10 µM

Which results are given for `COc1ccc(C[C@H]2NC[C@H](O)[C@H]2OC(=O)NC[C@H]2CNC[C@@H]2O)cc1` [V188114, (2R,3S,4S)-4-hydroxy-2-[(4-methoxyphenyl)methyl]pyrrolidin-3-yl N-{[(3R,4R)-4-hydroxypyrrolidin-3-yl]methyl}carbamate]?
IC50 (CCND1; sfGFP/mCherry ratio): > 30 µM; IC50 (MYC; sfGFP/mCherry ratio): 20 to 30 µM; IC50 (MCL-1; sfGFP/mCherry ratio): 10 to 20 µM
